Each structure is given as a SMILES string.

For the first experiment, the system named is CRABP-2. Kind of experiment: CRABP-2 protein expression in fibroblasts by Western immuno-blotting and densitometric scanning. The experiment is classed as cell-based, Human. Conditions: Example 1: 100 nM retinoids and 0.1 μl of a 10% chick pea extract; 4 h extract pre-treatment, 48 h incubation; +/- SD of triplicates. The method, then:
Dried chick pea was purchased from local markets and powdered in a dry grinder. The alcoholic extract of chick pea was prepared by stirring 1 gram of the dry chick pea powder in 10 ml of ethanol for 4 to 24 hrs at room temperature. The extract was clarified by filtration and centrifugation, to obtain a 10% extract of chick pea in ethanol.
Human adult fibroblasts obtained from sun-protected inner arm of […] were used in this. Cells were grown in 1:1 DMEM/Hams F12 media containing 10% FBS, maintained at 37 C. in a 5% CO2 atmosphere under normal atmospheric oxygen tension. Third passage adult fibroblasts were grown in DMEM media with 10% FBS in 12-well plates at a seeding density of 40,000 cells/ml/well. The cells at 80% confluence were rinsed in serum free and phenol red free (PRF) DMEM media twice. Pre-treatment with chick pea extract for 4 hours was conducted and then dosed with retinoids and was incubated for 48 hours. After the incubation, the wells were washed twice with 1×PBS and the cell monolayer was harvested in 100 μI cell lysis buffer (contains 1×PBS, 1% TritonX, 0.5% sodium deoxycholate, 0.1% SDS containing protease inhibitor (10 mg/ml PMSF in isopropanol, 10 μl/ml)). The suspension was spun at 14000 rpm for 10 minutes, the supernatant collected and an aliquot of this supernatant was used for protein quantification. Protein concentration was determined using Pierce protein kit. The remainder of 100 μl supernatant (cell lysate) was denatured in a mixture of 40 μl sample buffer (NOVEX) and 0.5% Beta mercaptoethanol (BME) and by boiling the sample for 5 minutes. Equal amount of protein was then loaded onto 16% Tris-glycine gels for protein analysis by SDS page and Western Immuno-blotting for CRABP-2 protein expression.
To measure the levels of CRABP-2 in the fibroblasts prepared as described above, the cell supernatant was re-suspended in 4×sample buffer and 0.5% BME, boiled for 5 minutes and used for western blotting. Equal amounts of protein were loaded onto 16% Tris-glycine gels for CRABP-2 protein analysis by SDS page and Western Immuno-blotting. The gels were transferred to nitrocellulose blots and Western Blotting was carried out using monoclonal antibodies to CRABP-2 according to standard procedures. The CRABP-2 protein band was visualized in the Western Blots using the chemiluminescence system obtained from Santa Cruz Biotechnology (Santa Cruz, Calif.). The bands in the film were quantitated by densitometric scanning, the data from triplicate samples were calculated as % of control and expressed in the following tables as % increase over control (with control as 100%) +/−SD of triplicates.
`CC(=O)OC/C=C(C)/C=C/C=C(C)/C=C/C1=C(C)CCCC1(C)C` [Retinyl acetate, retinyl acetate]: the CRABP-2 levels is reported as 1.44 +/− 0.26.

Take `CCCCC/C=C\C/C=C\CCCCCCCC(=O)OC/C=C(C)/C=C/C=C(C)/C=C/C1=C(C)CCCC1(C)C` [Retinyl linoleate, retinyl linoleate]: the CRABP-2 levels is given as 2.06 +/− 0.09.

As for `CC1=C(/C=C/C(C)=C/C=C/C(C)=C/CO)C(C)(C)CCC1` [Retinol], the CRABP-2 levels is reported as 2.02 +/− 0.23.

Take `CCCCCCCCCCCCCCCC(=O)OC/C=C(C)/C=C/C=C(C)/C=C/C1=C(C)CCCC1(C)C` [Retinyl Palmitate, retinyl palmitate]: the CRABP-2 levels is on record as 1.84 +/− 0.16.

The experiment is the same for the next values; noted with them: Example 1: 100 nM retinoids and 0.1 μl of a 10% chick pea extract; +/- SD of triplicates.
As to `CC(=O)OC/C=C(C)/C=C/C=C(C)/C=C/C1=C(C)CCCC1(C)C` [Retinyl acetate, retinyl acetate], the CRABP-2 levels is reported as 1.44 +/− 0.26.

Consider `CCCCC/C=C\C/C=C\CCCCCCCC(=O)OC/C=C(C)/C=C/C=C(C)/C=C/C1=C(C)CCCC1(C)C` [Retinyl linoleate, retinyl linoleate], for which the CRABP-2 levels is on record as 2.06 +/− 0.09.

On to `CC1=C(/C=C/C(C)=C/C=C/C(C)=C/CO)C(C)(C)CCC1` [Retinol], for which the CRABP-2 levels is 2.02 +/− 0.23.

As for `CCCCCCCCCCCCCCCC(=O)OC/C=C(C)/C=C/C=C(C)/C=C/C1=C(C)CCCC1(C)C` [Retinyl Palmitate, retinyl palmitate], the CRABP-2 levels is 1.84 +/− 0.16.

The same experiment, now with this note: Example 1: 100 nM retinoids and 0.1 μl of a 10% chick pea extract; control as 100%.
As for `CC(=O)OC/C=C(C)/C=C/C=C(C)/C=C/C1=C(C)CCCC1(C)C` [Retinyl acetate, retinyl acetate], the “As % of control” value was 206 +/− 37 % of control.

For `CCCCC/C=C\C/C=C\CCCCCCCC(=O)OC/C=C(C)/C=C/C=C(C)/C=C/C1=C(C)CCCC1(C)C` [Retinyl linoleate, retinyl linoleate], the “As % of control” value is on record as 294 +/− 12 % of control.

For `CC1=C(/C=C/C(C)=C/C=C/C(C)=C/CO)C(C)(C)CCC1` [Retinol], the “As % of control” value is 289 +/− 34 % of control.

On to `CCCCCCCCCCCCCCCC(=O)OC/C=C(C)/C=C/C=C(C)/C=C/C1=C(C)CCCC1(C)C` [Retinyl Palmitate, retinyl palmitate], for which the “As % of control” value is on record as 262 +/− 24 % of control.

The same experiment, now with this note: Example 1: 100 nM retinoids and 0.1 μl of a 10% chick pea extract; control as 100%; +/- SD of triplicates.
In the case of `CC(=O)OC/C=C(C)/C=C/C=C(C)/C=C/C1=C(C)CCCC1(C)C` [Retinyl acetate, retinyl acetate], the “As % of control” value was 206 +/− 37 % of control.

`CCCCC/C=C\C/C=C\CCCCCCCC(=O)OC/C=C(C)/C=C/C=C(C)/C=C/C1=C(C)CCCC1(C)C` [Retinyl linoleate, retinyl linoleate]: the “As % of control” value is 294 +/− 12 % of control.

On to `CC1=C(/C=C/C(C)=C/C=C/C(C)=C/CO)C(C)(C)CCC1` [Retinol], for which the “As % of control” value is 289 +/− 34 % of control.

Turning to `CCCCCCCCCCCCCCCC(=O)OC/C=C(C)/C=C/C=C(C)/C=C/C1=C(C)CCCC1(C)C` [Retinyl Palmitate, retinyl palmitate], the “As % of control” value is 262 +/− 24 % of control.

The same experiment, now with this note: Example 3: 500 nM retinoids and 0.1 μl of a 10% chick pea extract; +/- SD of triplicates.
Consider `CC(=O)OC/C=C(C)/C=C/C=C(C)/C=C/C1=C(C)CCCC1(C)C` [Retinyl acetate, retinyl acetate], for which the CRABP-2 levels is 1.65 +/− 0.49.

Turning to `CCCCC/C=C\C/C=C\CCCCCCCC(=O)OC/C=C(C)/C=C/C=C(C)/C=C/C1=C(C)CCCC1(C)C` [Retinyl linoleate, retinyl linoleate], the CRABP-2 levels is 0.81 +/− 0.16.

On to `CC1=C(/C=C/C(C)=C/C=C/C(C)=C/CO)C(C)(C)CCC1` [Retinol], for which the CRABP-2 levels is on record as 0.72 +/− 0.04.

In the case of `CCCCCCCCCCCCCCCC(=O)OC/C=C(C)/C=C/C=C(C)/C=C/C1=C(C)CCCC1(C)C` [Retinyl Palmitate, retinyl palmitate], the CRABP-2 levels was 0.94 +/− 0.31.

Still in this experiment, the particulars now being: Example 3: 500 nM retinoids and 0.1 μl of a 10% chick pea extract; control as 100%.
As to `CC(=O)OC/C=C(C)/C=C/C=C(C)/C=C/C1=C(C)CCCC1(C)C` [Retinyl acetate, retinyl acetate], the “As % of control” value is reported as 235 +/− 70 % of control.

On to `CCCCC/C=C\C/C=C\CCCCCCCC(=O)OC/C=C(C)/C=C/C=C(C)/C=C/C1=C(C)CCCC1(C)C` [Retinyl linoleate, retinyl linoleate], for which the “As % of control” value is recorded as 115 +/− 23 % of control.

For the compound `CC1=C(/C=C/C(C)=C/C=C/C(C)=C/CO)C(C)(C)CCC1` [Retinol], the “As % of control” value is reported as 102 +/− 6 % of control.

For `CCCCCCCCCCCCCCCC(=O)OC/C=C(C)/C=C/C=C(C)/C=C/C1=C(C)CCCC1(C)C` [Retinyl Palmitate, retinyl palmitate], the “As % of control” value was 135 +/− 45 % of control.

The experiment is the same for the next values; noted with them: second table headed Example 3: 500 nM retinoids and 0.1 μl of a 10% chick pea extract; +/- SD of triplicates.
As to `CC(=O)OC/C=C(C)/C=C/C=C(C)/C=C/C1=C(C)CCCC1(C)C` [Retinyl acetate, retinyl acetate], the CRABP-2 levels is on record as 1.65 +/− 0.49.

Consider `CCCCC/C=C\C/C=C\CCCCCCCC(=O)OC/C=C(C)/C=C/C=C(C)/C=C/C1=C(C)CCCC1(C)C` [Retinyl linoleate, retinyl linoleate], for which the CRABP-2 levels is given as 0.81 +/− 0.16.

As to `CC1=C(/C=C/C(C)=C/C=C/C(C)=C/CO)C(C)(C)CCC1` [Retinol], the CRABP-2 levels was 0.72 +/− 0.04.

For the compound `CCCCCCCCCCCCCCCC(=O)OC/C=C(C)/C=C/C=C(C)/C=C/C1=C(C)CCCC1(C)C` [Retinyl Palmitate, retinyl palmitate], the CRABP-2 levels is given as 0.94 +/− 0.31.

Still in this experiment, the particulars now being: second table headed Example 3: 500 nM retinoids and 0.1 μl of a 10% chick pea extract; control as 100%.
As to `CC(=O)OC/C=C(C)/C=C/C=C(C)/C=C/C1=C(C)CCCC1(C)C` [Retinyl acetate, retinyl acetate], the “As % of control” value is 235 +/− 70 % of control.

As to `CCCCC/C=C\C/C=C\CCCCCCCC(=O)OC/C=C(C)/C=C/C=C(C)/C=C/C1=C(C)CCCC1(C)C` [Retinyl linoleate, retinyl linoleate], the “As % of control” value is given as 115 +/− 23 % of control.

Consider `CC1=C(/C=C/C(C)=C/C=C/C(C)=C/CO)C(C)(C)CCC1` [Retinol], for which the “As % of control” value is given as 102 +/− 6 % of control.

Consider `CCCCCCCCCCCCCCCC(=O)OC/C=C(C)/C=C/C=C(C)/C=C/C1=C(C)CCCC1(C)C` [Retinyl Palmitate, retinyl palmitate], for which the “As % of control” value is 135 +/− 45 % of control.
